“Also recorded” adds a separate entry of the source.

Data set [1] deals with T1, KNCMA1 (Sus scrofa, UniProt O18866).
T1 construct: endogenous in cells; host or cells: primary pig aortic endothelial cells
In words: Whole-cell current in primary pig aortic endothelial cells. The data set is classed as cell-based. Particulars: no BK beta chains. The text has this: Pig aortic endothelial cells only express KNCMAI and not KNCMB1-4 (Papassotiriou et al). Thus, the absence of stimulation indicates a lack of effect on KNCMA1.

The test system of a further data set is mouse vas deferens. In words: βγ-methylene ATP-induced contraction of mouse vas deferens. The note with it: 100 nM; electrically unstimulated vasa deferentia. The procedure: Mouse vas deferens were treated with either DMSO vehicle or 100 nM VSN16R 30 min before the first organ bath injection of various concentrations of βγ-methylene ATP into the organ bath (FIG. 16). The results represent the mean±SEM of βγ-methylene ATP-induced increases in tension (expressed in grams) of electrically unstimulated vasa deferentia. (n=6/group).

Another data set has as its system rat mesenteric arteries. In words: Vasodilation in rat mesenteric arteries (wire myograph). The procedure:
Rats were stunned by a blow to the back of their neck and killed by cervical dislocation in compliance with schedule 1 of the UK Animals (Scientific Procedures) Act 1986.
Segments (2 mm in length) were mounted in a Mulvany-Halpern type wire myograph (Model 610M; Danish Myo Technology, Aarhus, Denmark) and maintained at 37° C. in gassed (95% O2/5% CO2) Krebs-Henseleit solution of the following composition (mM): NaCl 118, KCl 4.7, MgSO4 1.2, KH2PO4 1.2, NaHCO, 25, CaCl2 2, D-glucose 10 as previously described (Ho and Randall, 2007). Arteries were equilibrated and set to a basal tension of 2-2.5 mN. The integrity of the endothelium was assessed by precontracting the vessel with 10 μM methoxamine (an α1-adrenoceptor agonist), followed by relaxation with 10 μM carbachol (a muscarinic acetylcholine receptor agonist); vessels showing relaxations of greater than 90% were designated as endothelium-intact. When endothelium was not required, it was removed by rubbing the intima with a human hair; carbachol-induced relaxation of less than 10% indicated successful removal. After the test for endothelial integrity, arteries were left for 30 min and then precontracted with 10 μM methoxamine (or 60 mM KCl), this was followed by construction of a cumulative concentration-relaxation curve to VSN16R (10 nM-1 μM). Most experiments were performed in matched vessels; effects of putative modulators or endothelial removal were compared with the control responses obtained in separate vessels of the same rat. Potential modulators were added to the myograph bath 30 min before measurement, and kept present during, construction of the concentration-relaxation curve.

Another data set in a line: Half-life by route. The data set is classed as in vivo.
A further data set concerns mesenteric arteries. The note with it: cited from earlier work.
Data set [2] in a line: Known efficacious oral dose (model not stated). It is filed as in vivo. The note with it: p.o.
Data set [3] can be described thus: Intraocular pressure (IOP) after topical application. Particulars: for IOP, mean: BL 11.18. The data set is classed as in vivo, rats. The procedure: The effect of VSN16R on IOP was measured using the techniques described in the literature (Guo L. et aI, Investigative Ophthalmology & Visual Science, January 2005, Vol 46, No. 1 p 175-182; Guo L. et al, Investigative Ophthalmology & Visual Science, February 2006, Vol 47, No. 2 p 626-633; Cordeiro F. et al, PNAS, Aug. 14, 2007; Vol 104; No. 33, p 13444-13449; Cordeiro F. et al, PNAS, Sep. 7, 2004; Vol 101; No. 36, p 13352-13356).

Data set [4] addresses T1, KNCMA1. In words: Inside-out patch clamp of pig aortic endothelial cells. The data set is classed as cell-based. (In patch-clamp work, channel activity is measured electrically.)
In data set [5] the test system is C57BL/6.Fmr1 knockout mice. In words: Contextual fear conditioning in Fmr1 knockout mice. It is filed as in vivo, mouse. Particulars: Fmr1 knockout mice, 2 mg/kg i.v. The procedure: (§1) Animals: C57BL/6.J. Fmr1-K02 mice, which have a deletion of the promoter and exonl of the Fmr1 gene (Mientjes et al., 2006) and C57BL/6J wild type (WT) were originated from the Jackson laboratory (Ann Harbor, USA). Mice were housed in groups (4-6 per cage) and all animals were provided with ad libitum food and water unless otherwise stated. Mice were maintained on a 12 h light/12 h dark cycle (lights off 19:00 to 7:00) in a temperature-controlled environment (21±1° C.). Testing was conducted in the light phase. Mice were housed in commercial cages and experiments were performed in line with the United Kingdom Animals (Scientific procedures) Act 1986. All experiments were conducted with experimentors blind to genotype and drug treatment. Each experimental group contained 10 animals.
Drug Treatment: VSN16R was dissolved in saline for injection intravenously via a tail vein using 2 mg/kg a 30 g needle in a volume of 0.1 ml. Animals were inspected for differences in coat appearance, to detect whether any piloerection was present. The eye condition (runny eyes or porphyria, ptosis), gait appearance, tremor, tail tone, reactivity to handling was assessed to detect adverse behavioural effect.
Contextual fear conditioning: Animals are trained to expect an electroshock treatment within a defined environment, such that on subsequent presentation of the environment, freezing behaviours are induced. […]

Data set [6] in a line: Tolerability on repeated dosing. It is filed as in vivo, mouse.
The subject of data set [7] is C57BL/6.Fmr1 knockout mice. In words: Marble burying in Fmr1 knockout mice. It is filed as in vivo, mouse. Particulars: 2 mg/kg i.v., 30 min. The procedure:
as §1, with “All experiments were conducted with experimentors blind to genotype and drug treatment. Each experimental group contained 10 animals.” left out
Drug Treatment: VSN16R was dissolved in saline for injection intravenously via a tail vein using 2 mg/kg a 30 g needle in a volume of 0.1 ml. […] The eye condition (runny eyes or porphyria, ptosis), gait appearance, tremor, tail tone, reactivity to handling was assessed to detect adverse behavioural effect.
Marble burying: Mice will dig as part of their typical behaviours and this was detected using transparent plastic cages were filled with a 10 cm deep layer of sawdust on top of which 10 glass marbles were placed in two rows. Each animal was left undisturbed in such a cage for 30 min, after which the number of marbles that were buried to at least ⅔ of their depth was recorded. […]

T1 sequence (O18866 whole entry): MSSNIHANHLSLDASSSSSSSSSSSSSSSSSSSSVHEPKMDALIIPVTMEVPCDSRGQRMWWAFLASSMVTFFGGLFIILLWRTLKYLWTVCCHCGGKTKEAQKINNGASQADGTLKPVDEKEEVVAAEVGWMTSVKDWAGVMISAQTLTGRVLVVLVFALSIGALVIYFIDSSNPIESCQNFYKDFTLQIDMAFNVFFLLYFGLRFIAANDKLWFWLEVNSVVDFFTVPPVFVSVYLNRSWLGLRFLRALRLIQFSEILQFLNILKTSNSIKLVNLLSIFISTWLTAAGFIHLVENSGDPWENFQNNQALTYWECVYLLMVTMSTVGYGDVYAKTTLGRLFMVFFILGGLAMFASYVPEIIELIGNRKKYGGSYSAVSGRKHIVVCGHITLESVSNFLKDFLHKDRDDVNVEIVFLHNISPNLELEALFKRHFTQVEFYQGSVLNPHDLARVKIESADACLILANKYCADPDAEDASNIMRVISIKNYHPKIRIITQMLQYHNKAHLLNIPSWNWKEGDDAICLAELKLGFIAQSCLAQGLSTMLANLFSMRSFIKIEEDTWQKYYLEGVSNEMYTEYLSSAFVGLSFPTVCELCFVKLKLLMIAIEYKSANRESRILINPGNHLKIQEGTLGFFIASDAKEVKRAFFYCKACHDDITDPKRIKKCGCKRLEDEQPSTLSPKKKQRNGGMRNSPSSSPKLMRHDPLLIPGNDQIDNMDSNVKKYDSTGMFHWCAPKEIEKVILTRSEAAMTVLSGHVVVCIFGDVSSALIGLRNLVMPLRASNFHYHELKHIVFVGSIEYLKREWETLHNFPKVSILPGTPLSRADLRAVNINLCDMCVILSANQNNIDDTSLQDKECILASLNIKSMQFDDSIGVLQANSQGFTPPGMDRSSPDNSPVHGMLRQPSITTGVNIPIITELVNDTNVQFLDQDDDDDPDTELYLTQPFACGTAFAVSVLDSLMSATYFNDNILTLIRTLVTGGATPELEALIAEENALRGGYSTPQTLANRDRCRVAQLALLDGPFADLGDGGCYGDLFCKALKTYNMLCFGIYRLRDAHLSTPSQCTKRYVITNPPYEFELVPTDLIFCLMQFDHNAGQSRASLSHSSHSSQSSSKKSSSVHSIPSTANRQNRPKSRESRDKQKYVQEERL

Consider `C[C@H](CO)NC(=O)c1cccc(/C=C\CCCC(=O)N(C)C)c1` [VSN16R], for which the effect on current entry at KNCMA1 [1] is “only a minor effect on current”. For the same compound, the “effect on βγ-methylene ATP-induced contraction” value in the data set with mouse vas deferens is recorded as “does not affect”. The “relaxation of rat mesenteric arteries in the presence of charybdotoxin” value with rat mesenteric arteries (50 nM charybdotoxin) is recorded as “inhibited by antagonists of BKCa channels”. For the same compound, the “relaxation of rat mesenteric arteries in the presence of iberotoxin” value in the data set with rat mesenteric arteries (50 nM iberotoxin) was “blocked by iberotoxin; also recorded: can be inhibited by the specific BK channel blocker iberiotoxin; also recorded: inhibited by antagonists of BKCa channels”. Besides, the “activation of calcium activated potassium channels in arterial vasodilation assay” value with rat mesenteric arteries (FIG. 9, reduction of endothelial tone) is given as “activates calcium activated potassium channels”. Further, the “relaxation of rat mesenteric arteries in the presence of apamin alone” value with rat mesenteric arteries (apamin alone) is reported as “non-significant blockade”. The “relaxation of rat mesenteric arteries in the presence of apamin and charybdotoxin” value in the data set with rat mesenteric arteries (combination of apamin and charybdotoxin) was “blocked”. Also, the “relaxation of rat mesenteric arteries in the presence of 60 mM KCl” value in the data set on rat mesenteric arteries (extracellular 60 mM KCl) is reported as “inhibiting VSN16R activity; also recorded: produced no relaxation”. For the same compound, the “relaxation of rat mesenteric arteries” value in the data set with rat mesenteric arteries (pre-contracted with methoxamine, endothelium intact vs denuded) is “relaxed; also recorded: can induce vasorelaxation in an endothelium-dependent (P<0.001) manner”. Besides, the t½ in “Half-life by route” (intravenous route) worked out at 6 min. Besides, in “Half-life by route” (oral vs intravenous), the “half-life, oral route relative to intravenous route” value came out at 10 times. Besides, in the data set on mesenteric arteries, the “action on smooth muscle carrying the β1 subunit” value is reported as “does not act on smooth muscle”. Besides, in [2], the known efficacy dose is listed as ≥ 1 mg/kg. The “IOP, mean” value in data set [3] (0.5 h after VSN16R, p<0.05) turned out to be 9.82 mmHg; in [3] (1 h after VSN16R, not significant) it was 10.79 mmHg. In addition, the “effect on intraocular pressure” value in data set [3] (topical to the eye, normal rats) is “reduces intraocular pressure”. The “response in inside-out patch” value at KNCMA1 [4] is reported as “does not give a response”. The “fear conditioning (freezing)” value in [5] is on record as “inhibits the development of fear conditioning; also recorded: significantly (P<0.001) limited the exaggerated behaviour”. Moreover, the tolerability entry in data set [6] (2 mg/kg i.v. over 2 weeks) is “well tolerated and no instances of toxicity were observed; also recorded: well tolerated”. Moreover, the tolerable dose in data set [6] (daily, p.o.) is reported as ≥ 1000 mg/kg. Besides, the “digging behaviour (marbles buried)” value in data set [7] is reported as “inhibits the development of Exaggerated Digging Behaviours; also recorded: significantly (P<0.001) limited the exaggerated behaviour”.

As usually defined, the t½ is the time in which the quantity being followed falls by half.
